According to patent US9481676B2, “Azepino[4,5-B]indoles and methods of use” (Medivation Technologies, Inc., priority 2008, dated 2016):

These compounds were tested against T1, human recombinant histamine H2 receptor (Homo sapiens, UniProt P25021) (assay: Histamine H2 radioligand binding ([125I]Aminopotentidine)). Details: compound at 1 μM; read-out: Histamine Binding (1 μM) H2, percent inhibition of specific binding.
T1 construct: expressed in transfected cells; host or cells: CHO-K1 cells
T1 sequence (P25021 whole entry): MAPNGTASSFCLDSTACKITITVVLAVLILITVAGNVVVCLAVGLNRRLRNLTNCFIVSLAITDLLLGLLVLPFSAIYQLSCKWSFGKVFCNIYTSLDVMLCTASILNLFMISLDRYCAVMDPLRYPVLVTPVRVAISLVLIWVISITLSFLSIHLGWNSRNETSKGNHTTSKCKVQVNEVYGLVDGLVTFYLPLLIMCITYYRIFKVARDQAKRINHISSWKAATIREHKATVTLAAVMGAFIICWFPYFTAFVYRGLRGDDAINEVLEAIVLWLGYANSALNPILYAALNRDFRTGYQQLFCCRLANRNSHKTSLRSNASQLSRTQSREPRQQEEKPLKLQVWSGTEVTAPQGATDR
In short: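 Membranes from CHO-K1 cells expressing recombinant human H2 receptor, in 50 mM phosphate buffer pH 7.4, incubated with 0.1 nM [125I]aminopotentidine for 120 min at 25 °C; nonspecific binding defined with 3 μM tiotidine.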
In the case of `CN1CCc2c(n(CCc3ccc(C(F)(F)F)nc3)c3ccc(Cl)cc23)CC1` [Compound No. 1, 9-chloro-6-(2-(6-(trifluoromethyl)pyridin-3-yl)ethyl)-1,2,3,4,5,6-hexahydro-3-methylazepino[4,5-b]indole], the inhibition at 1 µM is reported as 58%. Compound `C/C(=C\n1c2c(c3cc(Cl)ccc31)CCN(C)CC2)c1ccc(F)cc1` [Compound No. 2, 9-chloro-6-((E)-2-(4-fluorophenyl)prop-1-enyl)-1,2,3,4,5,6-hexahydro-3-methylazepino[4,5-b]indole] has an inhibition at 1 µM of 105%. For `Cc1cncc(CCn2c3c(c4cc(Cl)ccc42)CCN(C)CC3)c1` [Compound No. 3, 9-chloro-3-methyl-6-(2-(5-methylpyridin-3-yl)ethyl)-1,2,3,4,5,6-hexahydroazepino[4,5-b]indole], the inhibition at 1 µM was 82%. In the case of `CC1CCN(C(=O)Cn2c3c(c4cc(Cl)ccc42)CCN(C)CC3)CC1` [Compound No. 76, 2-(9-chloro-2,3,4,5-tetrahydro-3-methylazepino[4,5-b]indol-6(1H)-yl)-1-(4-methylpiperidin-1-yl)ethanone], the inhibition at 1 µM is reported as 19%. For `COc1ccc(C(O)Cn2c3c(c4cc(Cl)ccc42)CCN(C)CC3)cc1OC` (stereo not drawn) [Compound No. 77, 2-(9-chloro-2,3,4,5-tetrahydro-3-methylazepino[4,5-b]indol-6(1H)-yl)-1-(3,4-dimethoxyphenyl)ethanol], the inhibition at 1 µM was 37%. Compound `COc1ccc(/C=C/n2c3c(c4cc(Cl)ccc42)CCN(C)CC3)cc1` [Compound No. 78, 6-(4-methoxystyryl)-9-chloro-1,2,3,4,5,6-hexahydro-3-methylazepino[4,5-b]indole] has an inhibition at 1 µM of 91%. For `Cc1ccc2c(c1)c1c(n2CC(=O)Nc2ccccc2)CCN(C)CC1` [Compound No. 79, 2-(2,3,4,5-tetrahydro-3,9-dimethylazepino[4,5-b]indol-6(1H)-yl)-N-phenylacetamide], the inhibition at 1 µM was 0%. Work on `C=C(Cn1c2c(c3cc(Cl)ccc31)CCN(C)CC2)c1ccc(F)cc1` [Compound No. 82, 9-chloro-6-(2-(4-fluorophenyl)allyl)-3-methyl-1,2,3,4,5,6-hexahydroazepino[4,5-b]indole] yielded an inhibition at 1 µM of 95%. Work on `CN1CCc2c(n(/C=C/c3ccccc3F)c3ccc(Cl)cc23)CC1` [Compound No. 83, (E)-9-chloro-6-(2-fluorostyryl)-3-methyl-1,2,3,4,5,6-hexahydro azepino[4,5-b]indole] yielded an inhibition at 1 µM of 98%. For `C/C(=C/n1c2c(c3cc(Cl)ccc31)CCN(C)CC2)c1ccc(Cl)cc1Cl` [Compound No. 152, (Z)-9-chloro-6-(2-(2,4-dichlorophenyl)prop-1-enyl)-1,2,3,4,5,6-hexahydro-3-methylazepino[4,5-b]indole], the inhibition at 1 µM was 86%. In the case of `COc1ccc(/C=C/n2c3c(c4cc(Cl)ccc42)CCN(C)CC3)cc1F` [Compound No. 158, (E)-6-(3-fluoro-4-methoxystyryl)-9-chloro-1,2,3,4,5,6-hexahydro-3-methylazepino[4,5-b]indole], the inhibition at 1 µM is reported as 89%. Work on `C/C(=C/n1c2c(c3cc(C)ccc31)CCN(C)CC2)c1ccc(Cl)cc1Cl` [Compound No. 174, (Z)-6-(2-(2,4-dichlorophenyl)prop-1-enyl)-1,2,3,4,5,6-hexahydro-3,9-dimethylazepino[4,5-b]indole] yielded an inhibition at 1 µM of 99%. Work on `COc1ccc(/C=C/n2c3c(c4cc(C)ccc42)CCN(C)CC3)cc1F` [Compound No. 180, (E)-6-(3-fluoro-4-methoxystyryl)-1,2,3,4,5,6-hexahydro-3,9-dimethylazepino[4,5-b]indole] yielded an inhibition at 1 µM of 77%. In the case of `Cc1ccc2c(c1)c1c(n2CC(=O)N2CCNCC2)CCN(C)CC1` [Compound No. 224, 2-(3,9-dimethyl-2,3,4,5-tetrahydroazepino[4,5-b]indol-6(1H)-yl)-1-(piperazin-1-yl)ethanone], the inhibition at 1 µM is reported as -4%. For `Cc1ccc2c(c1)c1c(n2CC(=O)N2CCC(C)CC2)CCN(C)CC1` [Compound No. 225, 2-(3,9-dimethyl-2,3,4,5-tetrahydroazepino[4,5-b]indol-6(1H)-yl)-1-(4-methylpiperidin-1-yl)ethanone], the inhibition at 1 µM was 6%. For `COc1ccc(/C=C/n2c3c(c4cc(Cl)ccc42)CCN(C)CC3)cc1OC` [Compound No. 226, (E)-9-chloro-6-(3,4-dimethoxystyryl)-3-methyl-1,2,3,4,5,6-hexahydroazepino[4,5-b]indole], the inhibition at 1 µM was 39%. Compound `COc1ccc(C(O)Cn2c3c(c4cc(C)ccc42)CCN(C)CC3)cc1OC` (stereo not drawn) [Compound No. 227, 1-(3,4-dimethoxyphenyl)-2-(3,9-dimethyl-2,3,4,5-tetrahydroazepino[4,5-b]indol-6(1H)-yl)ethanol] has an inhibition at 1 µM of 19%. With `CN1CCc2c(n(/C=C/c3ccccc3)c3ccc(Cl)cc23)CC1` [Compound No. 228, (E)-9-chloro-3-methyl-6-styryl-1,2,3,4,5,6-hexahydroazepino[4,5-b]indole] the inhibition at 1 µM was 97%.
